Laboratory results: patent US12440492B2, “Pharmaceutical compositions comprising AKT protein kinase inhibitors” (Genentech, Inc., priority 2016, dated 2025)
Counter-ions that a name gives are not always drawn.

Key:
Type in all cases: physicochemical
[1] = Particle size distribution (d10, d50, d90) by laser diffraction; settings: for Particle size d10 / Particle size d50 / Particle size d90: spray dried amorphous ipatasertib monohydrochloride powder
Description: FIG. 6 illustrates particle size distribution of the material of Example 6C (Batch HQ00003) spray dried with two-feed nozzle as obtained by laser diffraction A bimodal particle size distribution is obvious. FIG. 9 illustrates particle size distribution of spray dried material with rotary wheel nozzle, i.e. of the material of batch BS1506SA03 of Example 13 (Table 20) obtained using a Malvern Mastersizer 2000 equipped with Hydro 2000S wet sample dispersion unit (Malvern Instruments Ltd, Malvern/UK). A monomodal particle size distribution is obvious. The terms “d50 value” (sometimes also referred to as “d(0.5)-value”) and “mass-median diameter” (or MMD) can be used interchangeably and denote the average particle size by mass, i.e. the average equivalent diameter of a particle, which is defined as the diameter where 50% (w) of the particles of the ensemble have a larger equivalent spherical diameter, and the other 50% (w) have a smaller equivalent spherical diameter. In analogy, the term “d10-value” denotes the particle diameter wherein 10% (w) of the particles of the ensemble have a smaller equivalent spherical diameter. In analogy, the term “d90-value” denotes the particle diameter wherein 90% (w) of the particles of the ensemble have a smaller equivalent spherical diameter.

Glass transition = settings: monohydrochloride
[2] = Solid state by X-ray powder diffraction; settings: * indicates absence of crystalline API; monohydrochloride
Description: Bragg's law describes the diffraction of crystalline material with the equation “2d·sin(theta)=n·lambda”, wherein “d” denotes perpendicular distance (in Angstroms) between pairs of adjacent planes in a crystal (“d-spacing”), “theta” denotes the Bragg angle, “lambda” denotes the wavelength and “n” is an integer. When Bragg's law is fulfilled, the reflected beams are in phase and interfere constructively so that Bragg diffraction peaks are observed in the X-ray diffraction pattern. At angles of incidence other than the Bragg angle, reflected beams are out of phase and destructive interference or cancellation occurs. […] The XRPD pattern of an amorphous material is further characterized by one or more amorphous halos.
The term “XRPD” denotes the analytical method of X-Ray Powder Diffraction. The repeatability of the angular values is in the range of 2Theta±0.2°, more particularly in the range of 2Theta±0.1°. The term “approximately” given in combination with an angular value denotes the variance which is in the range of 2Theta±0.2°, particularly in the range of 2Theta±0.1°. The relative XRPD peak intensity is dependent upon many factors such as structure factor, temperature factor, crystallinity, polarization factor, multiplicity, and Lorentz factor. Relative intensities may vary considerably from one measurement to another due to preferred orientation effects. According to USP 941 (US Pharmacopoeia, 37th Edition, General Chapter 941), relative intensities between two samples of the same material may vary considerably due to “preferred orientation” effects. Anisotropic materials adopting preferred orientation will lead to anisotropic distribution of properties such as modulus, strength, ductility, toughness, electrical conductivity, thermal expansion, etc., as described e.g. in Kocks U. F. et al. (Texture and Anisotropy: Preferred Orientations in Polycrystals and Their Effect on Materials Properties, Cambridge University Press, 2000). In XRPD but also Raman spectroscopy, preferred orientations cause a change in the intensity distribution. Preferred orientation effects are particularly pronounced with crystalline APIs of relatively large particle size.

[3] = Shear cell testing with Ring Shear Tester RST-XS; settings: Pre-shear stress 1000 PA, 30 mL shear cell; monohydrochloride
Description: Similar to the classification used by Jenike (Dietmar Schulze, Pulver und Schüttgüter, 2009 Springer Verlag Berlin/DE), one can define flow behaviour based on the flow function constant (ffc) as follows:
The larger the flow function constant ffc, i.e., the smaller the ratio of the unconfined yield strength (σc) to the consolidation stress (σ1), the better a bulk solid's flow.

[4] = Bulk density, tapped density and Carr index; settings: spray dried amorphous ipatasertib monohydrochloride powder; monohydrochloride
[5] = Mechanical deformation behaviour (brittleness); settings: more brittle than lactose
Description: Mechanical compression during tableting of conventional pharmaceutical compositions comprising ipatasertib leads to exhausted compressibility, followed by elastic recovery of the tablet upon decompression. Therefore conventional pharmaceutical compositions comprising ipatasertib monohydrochloride are not suitable for direct compression due to lamination problems (crack formation during decompression) which are detectable as small cracks and fractures of the tablet core (e.g. using X-ray microtomography). Industrially required high-speed tableting processes may not be achievable.

[6] = Hygroscopicity of ipatasertib
Description: (§1) Whereas poor solubility is often a limiting factor in the development of galenical formulations of other API's (active pharmaceutical ingredient), a high solubility can equally be problematic for the process performance. Due to this very high intrinsic hygroscopicity of the API, ipatasertib drug substance tends to auto-dissolve to a honey-like viscous liquid at increased humidity. Such high solubility and hygroscopicity may pose serious problems for processing as well as for stability and shelf-life of the final product. Therefore, conventional pharmaceutical compositions comprising ipatasertib and processes for the manufacture of pharmaceutical compositions comprising wetting (e.g. wet granulation) are difficult due to the high solubility and high hygroscopicity of the API.

[7] = Solubility of ipatasertib
Description: as §1

CC(C)NC[C@@H](C(=O)N1CCN(c2ncnc3c2[C@H](C)C[C@H]3O)CC1)c1ccc(Cl)cc1 [6A′, ipatasertib monohydrochloride]
Particle size d10 [1]: 0.7 μm | Particle size d50 [1]: 3.8 μm | Particle size d90 [1]: 7.5 μm | Glass Transition tg (Glass transition): 131 °C | Solid state / Polymorphy (X-Ray, XRPD) [2]: amorphous

CC(C)NC[C@@H](C(=O)N1CCN(c2ncnc3c2[C@H](C)C[C@H]3O)CC1)c1ccc(Cl)cc1 [6B′, ipatasertib monohydrochloride]
Particle size d10 [1]: 0.7 μm | Particle size d50 [1]: 5.2 μm | Particle size d90 [1]: 10.8 μm | Glass Transition tg (Glass transition): 132 °C | Solid state / Polymorphy (X-Ray, XRPD) [2]: amorphous

CC(C)NC[C@@H](C(=O)N1CCN(c2ncnc3c2[C@H](C)C[C@H]3O)CC1)c1ccc(Cl)cc1 [Composition 140910415, ipatasertib monohydrochloride]
Particle size d10 [1]: 11 μm | Particle size d50 [1]: 29 μm | Particle size d90 [1]: 56 μm | Consolidation stress (σ1) [3]: 1710 PA | Flow Function Constant (ffc) [3]: 3.3 | Bulk density [4]: 0.42 gcm^−3 | Tapped density [4]: 0.57 gcm^−3 | Solid state / Polymorphy (X-Ray, XRPD) [2]: amorph.*

CC(C)NC[C@@H](C(=O)N1CCN(c2ncnc3c2[C@H](C)C[C@H]3O)CC1)c1ccc(Cl)cc1 [Composition 140910416, ipatasertib monohydrochloride]
Particle size d10 [1]: 10 μm | Particle size d50 [1]: 27 μm | Particle size d90 [1]: 52 μm | Consolidation stress (σ1) [3]: 1731 PA | Flow Function Constant (ffc) [3]: 2.8 | Bulk density [4]: 0.40 gcm^−3 | Tapped density [4]: 0.55 gcm^−3 | Solid state / Polymorphy (X-Ray, XRPD) [2]: amorph.*

CC(C)NC[C@@H](C(=O)N1CCN(c2ncnc3c2[C@H](C)C[C@H]3O)CC1)c1ccc(Cl)cc1 [Composition 140910417, ipatasertib monohydrochloride]
Particle size d10 [1]: 11 μm | Particle size d50 [1]: 27 μm | Particle size d90 [1]: 54 μm | Consolidation stress (σ1) [3]: 1726 PA | Flow Function Constant (ffc) [3]: 2.9 | Bulk density [4]: 0.39 gcm^−3 | Tapped density [4]: 0.55 gcm^−3 | Solid state / Polymorphy (X-Ray, XRPD) [2]: amorph.*

CC(C)NC[C@@H](C(=O)N1CCN(c2ncnc3c2[C@H](C)C[C@H]3O)CC1)c1ccc(Cl)cc1 [Composition 140910418, ipatasertib monohydrochloride]
Particle size d10 [1]: 10 μm | Particle size d50 [1]: 26 μm | Particle size d90 [1]: 52 μm | Consolidation stress (σ1) [3]: 1730 PA | Flow Function Constant (ffc) [3]: 3.1 | Bulk density [4]: 0.39 gcm^−3 | Tapped density [4]: 0.55 gcm^−3 | Solid state / Polymorphy (X-Ray, XRPD) [2]: amorph.*

CC(C)NC[C@@H](C(=O)N1CCN(c2ncnc3c2[C@H](C)C[C@H]3O)CC1)c1ccc(Cl)cc1 [Composition 140910419, ipatasertib monohydrochloride]
Particle size d10 [1]: 11 μm | Particle size d50 [1]: 33 μm | Particle size d90 [1]: 67 μm | Consolidation stress (σ1) [3]: 1729 PA | Flow Function Constant (ffc) [3]: 3.5 | Bulk density [4]: 0.44 gcm^−3 | Tapped density [4]: 0.58 gcm^−3 | Solid state / Polymorphy (X-Ray, XRPD) [2]: amorph.*

CC(C)NC[C@@H](C(=O)N1CCN(c2ncnc3c2[C@H](C)C[C@H]3O)CC1)c1ccc(Cl)cc1 [Composition 140910420, ipatasertib monohydrochloride]
Particle size d10 [1]: 9.7 μm | Particle size d50 [1]: 24 μm | Particle size d90 [1]: 47 μm | Consolidation stress (σ1) [3]: 1733 PA | Flow Function Constant (ffc) [3]: 2.4 | Bulk density [4]: 0.32 gcm^−3 | Tapped density [4]: 0.44 gcm^−3 | Solid state / Polymorphy (X-Ray, XRPD) [2]: amorph.*

CC(C)NC[C@@H](C(=O)N1CCN(c2ncnc3c2[C@H](C)C[C@H]3O)CC1)c1ccc(Cl)cc1 [Example 6C, ipatasertib monohydrochloride]
particle size distribution shape ([1]; laser diffraction, monohydrochloride): bimodal | Particle size d10 [1]: 0.7 μm | Particle size d50 [1]: 4.3 μm | Glass Transition tg (Glass transition): 131 °C | Solid state / Polymorphy (X-Ray, XRPD) [2]: amorphous

CC(C)NC[C@@H](C(=O)N1CCN(c2ncnc3c2[C@H](C)C[C@H]3O)CC1)c1ccc(Cl)cc1 [ipatasertib monohydrochloride, (S)-2-(4-chlorophenyl)-1-(4-((5R,7R)-7-hydroxy-5-methyl-6,7-dihydro-5H-cyclopenta[d]pyrimidin-4-yl)piperazin-1-yl)-3-(isopropylamino)propan-1-one as monohydrochloride salt]
brittle deformation characteristics relative to lactose [5]: 3 ×

CC(C)NC[C@@H](C(=O)N1CCN(c2ncnc3c2[C@H](C)C[C@H]3O)CC1)c1ccc(Cl)cc1 [ipatasertib, (S)-2-(4-chlorophenyl)-1-(4-((5R,7R)-7-hydroxy-5-methyl-6,7-dihydro-5H-cyclopenta[d]pyrimidin-4-yl)piperazin-1-yl)-3-(isopropylamino)propan-1-one]
hygroscopicity ([6]; at 50% RH): ~6% | hygroscopicity ([6]; at 95% RH): > 35% | solubility ([7]; water): > 1 g/g | solubility ([7]; water/ethanol 1:1): > 2 g/g
